The results in this text go back to patent US8592403B2, “Diazepine and diazocane compounds as MC4 agonists” (Pfizer Limited, priority 2008, dated 2013).

One series has as its target T1, MC4 receptor (MC4R) (Homo sapiens, UniProt P32245).
T1 construct: expressed in transfected cells; host or cells: CHO-CRE MC4R cells (membranes)
Description: Nle4, D-Phe7-α-MSH inhibition at the MC4 receptor (competition binding, SPA, CHO-CRE MC4R membranes). An excerpt: Nle4, D-Phe7-α-MSH Inhibition at the MC4 Receptor
Nle4, D-Phe7-α-MSH is a stable analogue of melanocyte-stimulating hormone (MSH), which is an agonist at the MC4 receptor (MC4R). Compounds can be evaluated for their ability to inhibit Nle4, D-Phe7-α-MSH binding to membranes from cells expressing the MC4R using a competition binding assay versus [^125I] Nle4, D-Phe7-α-MSH.
Cells expressing the MC4R were subject to homogenisation and the membrane fragment isolated by differential centrifugation. CHO-CRE MC4R cell membranes were coupled to PVT-PEI-WGA SPA Beads type A for 2 hours, spun at 1000 RPM for 5 min and suspended to a concentration of 300 ug bead/ml (0.15 ug membrane, 15 ug bead per well). Bead/membrane mix was incubated with 0.06 nM [^125I] Nle4, D-Phe7-α-MSH and 11 half-log concentrations of competitor ligand, in duplicate, in a total volume of 50 μl buffer per well (25 mM HEPES, 1 mM MgCl2, 2.5 mM CaCl2, 1% Pluronic F68, 1 complete EDTA protease inhibitor tablet/50 ml pH7). Non-specific binding was determined by the inclusion of 100 nM SHU9119. The reaction was initiated by the addition of bead/membranes and plates were incubated at room temperature for 12 hours (the first hour on a plate shaker), after which the amount of radioactivity present was determined using a Wallac plate counter. Ki values were determined by data analysis using appropriate software.

The next series addresses T2, MC3 receptor (MC3R) (Homo sapiens, UniProt P41968).
T2 construct: expressed in transfected cells; host or cells: CHO-CRE MC3R cells (membranes)
Description: Nle4, D-Phe7-α-MSH inhibition at the MC3 receptor (competition binding, SPA, CHO-CRE MC3R membranes). An excerpt:
Nle4, D-Phe7-α-MSH Inhibition at the MC3 Receptor
Nle4, D-Phe7-α-MSH is a stable analogue of melanocyte-stimulating hormone (MSH), which is an agonist at the MC3 receptor (MC3R). Compounds can be evaluated for their ability to inhibit Nle4, D-Phe7-α-MSH binding to membranes from cells expressing the MC3R using a competition binding assay versus [^125I] Nle4, D-Phe7-α-MSH.
Cells expressing the MC3R were subject to homogenisation and the membrane fragment isolated by differential centrifugation. CHO-CRE MC3R cell membranes were coupled to PVT-PEI-WGA SPA Beads type A for 2 hours, spun at 1000 RPM for 5 mins and suspended to a final assay concentration of 800 ug bead/ml (1.2 ug membrane, 40 ug bead per well). Bead/membrane mix was incubated with 0.06 nM [^125I] Nle4, D-Phe7-α-MSH and 11 half-log concentrations of competitor ligand, in duplicate, in a total volume of 50 μl buffer per well (25 mM HEPES, 1 mM MgCl2, 2.5 mM CaCl2, 1% Pluronic F68, 1 complete EDTA protease inhibitor tablet/50 ml pH7). Non-specific binding was determined by the inclusion of 100 nM SHU9119. The reaction was initiated by the addition of bead/membranes and plates were incubated at room temperature for 12 hours (the first hour on a plate shaker), after which the amount of radioactivity present was determined using a Wallac plate counter. Ki values were determined by data analysis using appropriate software.

The next series has as its target MC4 receptor (Homo sapiens, UniProt P32245). Description: MC4 EC50 functional potency (protocol E of US2005/0176772 / WO 2005/077935). It is filed as cell-based. As for the experimental part: The compounds of formula (I) of the present invention have utility as MCR4 agonists in the treatment of various disease states.
MC5 and MC4 EC50 activity was determined as described by assay protocols D and E, respectively, in US2005/0176772 (pages 28-30).

Series [1] can be described thus: In vitro metabolism rate determination, human liver microsome (HLM) assay. It is filed as in vitro ADME. The following applies: human, liver microsomes, read-out: HLM: Clint, app. A digest of the protocol: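 Human liver microsomes at 0.5 nmol cytochrome P450/ml with 1 μM substrate, pre-warmed 5 min at 37° C, reaction started with NADP; samples taken 0–60 min and terminated. Substrate loss measured; first-order rate constant from log-linear regression converted to half-life or Clint (μl/min/mg protein).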

For the next series, the target named is T3, CYP3A4 (Homo sapiens, UniProt P08684).
T3 construct: utilizes human liver microsomes together with isoform-specific clinical drug probes; from tissue; host or cells: human liver microsomes
T3 sequence (P08684 whole entry, canonical isoform): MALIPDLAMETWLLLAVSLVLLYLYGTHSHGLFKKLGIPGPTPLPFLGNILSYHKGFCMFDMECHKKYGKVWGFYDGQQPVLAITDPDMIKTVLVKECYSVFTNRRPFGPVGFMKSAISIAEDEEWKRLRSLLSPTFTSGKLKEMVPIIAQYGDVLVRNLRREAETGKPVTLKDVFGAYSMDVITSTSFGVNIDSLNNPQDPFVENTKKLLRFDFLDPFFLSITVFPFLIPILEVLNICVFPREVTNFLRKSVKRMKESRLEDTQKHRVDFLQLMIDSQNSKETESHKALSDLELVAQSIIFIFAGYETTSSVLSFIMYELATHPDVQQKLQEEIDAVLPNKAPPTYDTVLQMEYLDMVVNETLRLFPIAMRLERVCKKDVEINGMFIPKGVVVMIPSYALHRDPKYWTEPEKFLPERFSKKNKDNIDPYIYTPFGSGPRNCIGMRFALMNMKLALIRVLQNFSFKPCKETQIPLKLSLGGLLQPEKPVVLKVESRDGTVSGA
Description: High density DDI 3 μM cocktail screen in human liver microsomes, midazolam probe. In kind it is in vitro ADME. The following applies: human, liver microsomes, probe midazolam, read-out: % inhibition 3A4 @ 3 μM. A digest of the protocol:
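Pooled human liver microsomes incubated with isoform-specific clinical probe substrates as a cocktail (midazolam for CYP3A4), with or without test compound at 3 μM. Metabolite formation followed over time by LC-MS/MS. Inhibition expressed as a single-point percentage.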
On the technique in general: Microsomes from liver hold many membrane-bound enzymes, among them those of drug oxidation.

Molecules are shown by their SMILES. pEC50, pKi: −log10 of the molar value.

T2 sequence (P41968 whole entry): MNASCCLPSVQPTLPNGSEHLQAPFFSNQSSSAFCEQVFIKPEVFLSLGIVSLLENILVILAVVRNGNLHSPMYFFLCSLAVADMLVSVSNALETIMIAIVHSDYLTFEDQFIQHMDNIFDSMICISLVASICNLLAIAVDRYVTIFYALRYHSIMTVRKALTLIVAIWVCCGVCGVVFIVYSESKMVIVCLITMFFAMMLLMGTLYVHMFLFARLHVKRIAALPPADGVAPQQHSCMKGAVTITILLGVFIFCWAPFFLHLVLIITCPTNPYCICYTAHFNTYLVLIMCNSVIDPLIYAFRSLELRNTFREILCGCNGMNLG
T1 sequence (P32245 whole entry): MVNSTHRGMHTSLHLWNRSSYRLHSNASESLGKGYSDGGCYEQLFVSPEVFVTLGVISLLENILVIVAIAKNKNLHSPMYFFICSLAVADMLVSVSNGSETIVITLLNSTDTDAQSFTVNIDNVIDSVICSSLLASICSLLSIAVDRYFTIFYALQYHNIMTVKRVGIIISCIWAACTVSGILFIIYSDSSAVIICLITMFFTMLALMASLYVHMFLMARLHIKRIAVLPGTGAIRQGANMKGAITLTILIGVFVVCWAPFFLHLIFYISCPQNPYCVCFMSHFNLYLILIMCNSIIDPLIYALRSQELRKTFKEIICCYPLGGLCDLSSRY
Sequence of MC4 receptor (P32245 whole entry): as above

In general, pKi refers to the Ki on a negative log10 scale, so that one unit is a factor of ten. A lower pKi goes with a high Ki. What is called pEC50 is the negative decadic logarithm of the EC50, by convention in mol/L. The low end stands for a high EC50, the high end for a low EC50. Usually inhibition stands for the percentage by which the read-out fell short of the control. Consider `COC(=O)N1CCN(C(=O)[C@@H]2CN(C3CCOCC3)C[C@H]2c2ccc(F)cc2F)CCCC1c1ccccc1` (mixture of isomers) [Example 74], for which the pKi was 5.86 at MC4 receptor (MC4R) and 4.71 at MC3 receptor (MC3R). At MC4 receptor, this compound had a pEC50 of 7.06. Besides, in series [1], the microsomal CLint at 1 μM was determined as 74 µL/min/mg. In addition, the inhibition at 3 µM at CYP3A4 stood at 56%.
For `COC(=O)N1CCN(C(=O)[C@@H]2CN(c3ccc(C#N)nn3)C[C@H]2c2ccc(F)cc2F)CCCC1c1ccc(Cl)cc1` (mixture of isomers) [Example 75], in that order: 7.07, 6.34, 7.97, 8 µL/min/mg and 73.5%.
With `COC(=O)N1CCN(C(=O)[C@@H]2CN(c3ccc(=O)n(C)n3)C[C@H]2c2ccc(F)cc2F)CCCC1c1ccc(Cl)cc1` (mixture of isomers) [Example 80], the pKi on MC4 receptor (MC4R) is 7.30; on MC3 receptor (MC3R), 6.20. Further, the pEC50 on MC4 receptor was 8.27. In series [1], the microsomal CLint at 1 μM was determined as 19 µL/min/mg. In addition, the inhibition at 3 µM at CYP3A4 turned out to be 70.5%.
For `Cn1nc(N2C[C@@H](C(=O)N3CCCC(c4ccc(Cl)cc4)N(S(C)(=O)=O)CC3)[C@H](c3ccc(F)cc3F)C2)ccc1=O` (mixture of isomers) [Example 81] the same measures were 6.91, 5.76, 7.70, 18 µL/min/mg and 32%.
On to `COC(=O)N1CCN(C(=O)[C@@H]2CN(C(C)(C)C)C[C@H]2c2ccc(F)cc2F)CCCC1c1ccccc1` (mixture of isomers) [Example 82], for which the figures for the pKi on MC4 receptor (MC4R) and at MC3 receptor (MC3R) were 5.29 and 4.71, respectively. Further, the pEC50 at MC4 receptor was 7.22. The microsomal CLint at 1 μM in series [1] worked out at 66 µL/min/mg. Also, at CYP3A4, the inhibition at 3 µM came to 47%.
For `COC(=O)N1CCN(C(=O)[C@@H]2CN(C(C)(C)C)C[C@H]2c2ccc(F)cc2F)CCCC1c1ccc(Cl)cc1` (mixture of isomers) [Example 83], in that order: 5.77, 5.09, 7.49, 23 µL/min/mg and 29%.
For `COc1ccc([C@@H]2CN(C(C)(C)C)C[C@H]2C(=O)N2CCCC(c3ccc(Cl)cc3)N(S(C)(=O)=O)CC2)c(F)c1` (mixture of isomers) [Example 92] the same measures were 5.75, 4.75, 6.56, 32.4 µL/min/mg and 33.5%.
For `COC(=O)N1CCN(C(=O)[C@@H]2CN(C(=O)OC(C)(C)C)C[C@H]2c2ccc(F)cc2F)CCCC1c1ccccc1` (mixture of isomers) [Example 97] the same measures were 5.79, 5.43, 6.80, 247 µL/min/mg and 63%.
Consider `CCCC(=O)N1CCN(C(=O)[C@@H]2CN(C(C)(C)C)C[C@H]2c2ccc(F)cc2F)CCCC1c1ccccc1` (mixture of isomers) [Example 104, 1-{[(3S,4R)-1-tert-butyl-4-(2,4-difluorophenyl)pyrrolidin-3-yl]carbonyl}-4-butyryl-5-phenyl-1,4-diazocane], for which the negative-log Ki (pKi) at MC4 receptor (MC4R) was 6.23; on MC3 receptor (MC3R), 5.04. For the same compound, the pEC50 on MC4 receptor is 7.74. Further, the microsomal CLint at 1 μM in series [1] was 69.2 µL/min/mg. The inhibition at 3 µM at CYP3A4 amounted to 48%.
For `COc1ccc([C@@H]2CN(c3ccc(C#N)nn3)C[C@H]2C(=O)N2CCCC(c3ccc(Cl)cc3)N(S(C)(=O)=O)CC2)c(F)c1` (mixture of isomers) [Example 105, 6-[(3S,4R)-3-{[5-(4-chlorophenyl)-4-(methylsulfonyl)-1,4-diazocan-1-yl]carbonyl}-4-(2-fluoro-4-methoxyphenyl)pyrrolidin-1-yl]pyridazine-3-carbonitrile], in that order: 7.04, 6.24, 7.44, 42 µL/min/mg and 37.5%.
For `COC(=O)N1CCN(C(=O)[C@@H]2CN(c3ccc(Cl)nn3)C[C@H]2c2ccc(OC)cc2F)CCCC1c1ccc(Cl)cc1` (mixture of isomers) [Example 107, Methyl 8-(4-chlorophenyl)-4-{[(3S,4R)-1-(6-chloropyridazin-3-yl)-4-(2-fluoro-4-methoxyphenyl)pyrrolidin-3-yl]carbonyl}-1,4-diazocane-1-carboxylate], in that order: 7.02, 6.17, 7.56, 47 µL/min/mg and 55.5%.
For `COC(=O)N1CCN(C(=O)[C@@H]2CN(c3ccc(=O)[nH]n3)C[C@H]2c2ccc(OC)cc2F)CCCC1c1ccc(Cl)cc1` (mixture of isomers) [Example 112, methyl 8-(4-chlorophenyl)-4-{[(3S,4R)-4-(2-fluoro-4-methoxyphenyl)-1-(6-oxo-1,6-dihydropyridazin-3-yl)pyrrolidin-3-yl]carbonyl}-1,4-diazocane-1-carboxylate], in that order: 7.76, 6.39, 8.47, 15 µL/min/mg and 65.5%.
Turning to `COC(=O)N1CCN(C(=O)[C@@H]2CN(c3ccc(=O)n(C)n3)C[C@H]2c2ccc(OC)cc2F)CCCC1c1ccc(Cl)cc1` (mixture of isomers) [Example 116], the pKi at MC4 receptor (MC4R) was 7.61; at MC3 receptor (MC3R), 6.24. The same compound showed a pEC50 on MC4 receptor of 8.44. In series [1], the microsomal CLint at 1 μM was 12 µL/min/mg. For the same compound, on CYP3A4, the inhibition at 3 µM was 75%.
For `COc1ccc([C@@H]2CN(c3ccc(=O)[nH]n3)C[C@H]2C(=O)N2CCCC(c3ccc(Cl)cc3)N(S(C)(=O)=O)CC2)c(F)c1` (mixture of isomers) [Example 111, 6-[(3S,4R)-3-{[5-(4-chlorophenyl)-4-(methylsulfonyl)-1,4-diazocan-1-yl]carbonyl}-4-(2-fluoro-4-methoxyphenyl)pyrrolidin-1-yl]pyridazin-3(2H)-one], in that order: 7.16, 6.03, 7.83, 24 µL/min/mg and 66.5%.
For `COc1ccc([C@@H]2CN(c3ccc(=O)n(C)n3)C[C@H]2C(=O)N2CCCC(c3ccc(Cl)cc3)N(S(C)(=O)=O)CC2)c(F)c1` (mixture of isomers) [Example 115, 6-[(3S,4R)-3-{[5-(4-chlorophenyl)-4-(methylsulfonyl)-1,4-diazocan-1-yl]carbonyl}-4-(2-fluoro-4-methoxyphenyl)pyrrolidin-1-yl]-2-methylpyridazin-3(2H)-one] the same measures were 7.27, 5.96, 7.80, 22.7 µL/min/mg and 58.2%.
